Measured values reported in article PMC3197640, “Human Engineered Heart Tissue as a Versatile Tool in Basic Research and Preclinical Toxicology” (PLoS ONE, 2011).
Read-outs that look alike come from different tables or passages of the source.

Experiments:
[1] = tested on: hESC-derived cardiomyocytes (EBs and EHTs); test: Action potential measurements with sharp microelectrodes (zero current clamp); format: cell-based, human
[2] = tested on: human engineered heart tissue (hEHT); conditions: for Threshold concentration at which the compound significantly decreased relaxation velocity / Threshold concentration inducing irregular beating patterns (RR-scatter): human, 30 min
Protocol: Calcium-concentration response curves were established in DMEM, 1% penicillin/streptomycin, 10 mM HEPES, and 100 µM acetylcysteine with calcium concentrations adjusted to the desired final concentration (0.2–3.0 mmol/L). Equilibration time was 20 minutes. Measurements were performed under spontaneous activity by automated video-optical recording and analysis (customized software, Consulting Team Machine Vision) as previously described. Contractile force F was calculated from the degree of post deflection δ (µm), silicone post length (L) and radius (R) and elastic modulus (E) by the formula F = 3πER^4δ/4L^3 [29]. Contraction- and relaxation velocities were calculated as the average maximal steepness of twitch contraction or relaxation, respectively. Each value represents the mean of all measurable contraction twitches in the recording period of 60 seconds per hEHT.
EHTs were equilibrated in DMEM, 1% penicillin/streptomycin, 10 mM HEPES, 100 µM acetylcysteine for one hour. […] Isoprenaline and carbachol were used at 100 nM and 10 µM, respectively.
Intervals between two contractions were determined for all recordings. […] Interval scatter was therefore defined as the length between 10th and 90th percentile (interdecile range, IDR). Statistical difference between groups of biological replicas were determined with Mann-Whitney U Test (*P<0.05).

hERG channel = conditions: cited from earlier work
[3] = read-out: Published IC50 (hERG), hERG channel assays

NC1=N[C@H](O)[C@H]2[C@H]3O[C@]4(O)O[C@@H]([C@@H](O)[C@@]2(N1)[C@@H]4O)[C@]3(O)CO [tetrodotoxin]
Effect on AP upstroke velocity [1]: significant decrease | Effect on APD80 and diastolic interval [1]: significant prolongation

CCN(CC)CCNC(=O)c1ccc(N)cc1 [Procainamide]
Threshold concentration at which the compound significantly decreased relaxation velocity [2]: 100000 nM | Threshold concentration inducing irregular beating patterns (RR-scatter) [2]: 100000 nM | IC50 (hERG channel; [3]): 139000 nM

CC(C)NCC(O)c1ccc(O)c(O)c1 (centres unmarked) [isoprenaline]
Effect on beating frequency ([2]; hEHT, 100 nM, 0.6 mM calcium): positive chronotropic effect | Effect on force ([2]; hEHT, 100 nM, 0.6 mM calcium): trend towards an increase in force (not significant)

C[N+](C)(C)CCOC(N)=O [carbachol]
Effect on isoprenaline-induced changes in frequency and force ([2]; hEHT, 10 µM, after isoprenaline 100 nM, 0.6 mM calcium): reversed

Cc1cccc(CCN2CCC(C(=O)c3ccc(NS(C)(=O)=O)cc3)CC2)n1 [E-4031]
Effect on APD ([1]; 300 nM, P<0.05, n = 4): significant prolongation

COC(=O)C1=C(C)NC(C)=C(C(=O)OCC(C)C)C1c1ccccc1[N+](=O)[O-] (centres unmarked) [nisoldipine]
Effect on electrical activity and contractions ([1]; 1 µM, all spontaneously beating hESC cultures): completely interrupted

[Ca+2] [calcium]
Decrease in force ([2]; hEHT, lowering calcium from 1.8 mM (baseline) to 0.2 mM): 90%
